Source: US20250332173A1, “COMPOUNDS AND METHODS FOR MODULATING NUCLEIC ACID SPLICING” (REMIX THERAPEUTICS INC., priority 2021, published 2025)
Like-named read-outs stand apart in the source and are kept apart here.

Columns and labels:
[1] = test system: MYB mRNA; test: RT-qPCR splicing assay, MYB canonical junction (CJ) and alternative junction (AJ) mRNA; format: cell-based, human; conditions: Homo sapiens; for AC50: increase in MYB alternative junction (AJ) mRNA, read-out: MYB AJ AC50
In short: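 Splicing switches were read by TaqMan RT-qPCR on lysates, quantifying exon-exon junctions of the canonical and alternative-exon isoforms. Lysates came from K562 (GAPDH/GUSB reference) or A673 (PPIA reference) cells exposed 24 h to compound in 11 threefold steps from 10 uM, with DMSO ≤0.25%.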

[2] = test system: SMN2 mRNA; test: RT-qPCR splicing assay, SMN2 canonical junction (CJ) mRNA; format: cell-based, human; conditions: Homo sapiens
In short: (§1)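 Canonical exon-exon junction transcript levels measured by one-step RT-qPCR of cell lysates, normalized to a housekeeping gene (GAPDH, GUSB or PPIA). Cells used were A673 or K562, exposed for 24 h to compound in 11-point, 3-fold series from 10 uM, with final DMSO at or below 0.25%.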

[3] = test system: Target C; test: RT-qPCR splicing assay panel, Target C canonical junction (CJ) mRNA; format: cell-based, human; conditions: Homo sapiens
In short: as §1

[4] = test system: K562 (human chronic myelogenous leukemia) cells; test: Cell Titer Glo 2.0 cell viability assay; format: cell-based; conditions: Homo sapiens, K562, 72 h, K562 cells, 72 hours, Cell Titer Glo 2.0; read-out: K562 GI50
[5] = canonical junction qPCR panel, Table 5, read-out: MYB (decrease in CJ mRNA levels, IC50)
[6] = decrease in MYB canonical junction (CJ) mRNA, RT-qPCR, read-out: MYB CJ IC50
[7] = canonical junction qPCR panel, Table 5, read-out: SMN2 (decrease in CJ mRNA levels, IC50)
[8] = canonical junction qPCR panel, Table 5, read-out: Target C (decrease in CJ mRNA levels, IC50)
[9] = Table 5 panel, canonical junction qPCR, compound concentration having 50% response in CJ decrease, read-out: MYB IC50 (decrease in CJ mRNA levels)
[10] = Table 5 panel, canonical junction qPCR, compound concentration having 50% response in CJ decrease, read-out: SMN2 IC50 (decrease in CJ mRNA levels)
[11] = Table 5 panel, canonical junction qPCR, compound concentration having 50% response in CJ decrease, read-out: Target C IC50 (decrease in CJ mRNA levels)

Cc1cn2nc(-c3ccc4c(=O)n(C5CCN(CC6CC6)C6(CC6)C5)ncc4n3)cc(C)c2n1 (stereo not drawn) [Compound 1543, 6-[4-(cyclopropylmethyl)-4-azaspiro[2.5]octan-7-yl]-2-(2,8-dimethylimidazo[1,2-b]pyridazin-6-yl)pyrido[2,3-d]pyridazin-5-one]
< 100 nM: IC50 [2, 7]
100 to 1000 nM: IC50 [1, 5] | IC50 [1, 6] | AC50 ([1]; RT-qPCR) | IC50 [3, 8] | GI50 [4]

Cc1cc(-c2nc3cc(N4CCNCC4)ccc3c(=O)[nH]2)cc2cn(C)nc12 [Compound 2213]
1000 to 10000 nM: GI50 [4]
> 10000 nM: IC50 [1, 5] | IC50 [1, 6] | AC50 ([1]; RT-qPCR) | IC50 [2, 7] | IC50 [3, 8]

Cc1cn2nc(-c3ccc4c(c3)CCN(C3CCNCC3)C4=O)cc2c(C)n1 [Compound 223, 6-[4,6-dimethylpyrazolo[1,5-a]pyrazin-2-yl]-2-(piperidin-4-yl)-3,4-dihydroisoquinolin-1-one]
1000 to 10000 nM: GI50 [4]
> 10000 nM: IC50 [3, 11]
100 to 1000 nM: IC50 [1, 9] | IC50 [1, 6] | AC50 ([1]; RT-qPCR) | IC50 [2, 10]

Cc1cn2nc(-c3ccc4c(c3)CCN(C3CCNCC3)C4=O)nc2c(C)n1 [Compound 222, 6-[6,8-dimethyl-[1,2,4]triazolo[1,5-a]pyrazin-2-yl]-2-(piperidin-4-yl)-3,4-dihydroisoquinolin-1-one]
1000 to 10000 nM: IC50 [1, 9] | IC50 [1, 6] | AC50 ([1]; RT-qPCR) | IC50 [3, 11] | GI50 [4]
100 to 1000 nM: IC50 [2, 10]

Cc1cn2nc(-c3ccc4c(=O)n([C@H]5CC(C)N[C@@H](C)C5)ncc4n3)cc(C)c2n1 (stereo in doubt) [Compound 1538, 2-(2,8-dimethylimidazo[1,2-b]pyridazin-6-yl)-6-[(2S,6S)-2,6-dimethyl-4-piperidyl]pyrido[2,3-d]pyridazin-5-one]
100 to 1000 nM: IC50 [1, 5] | IC50 [1, 6] | AC50 ([1]; RT-qPCR) | IC50 [2, 7] | IC50 [3, 8] | GI50 [4]

Cn1cc2cc(-c3ccc4c(=O)n(C5CCNCC5)cnc4c3)cc(F)c2n1 [Compound 206]
< 100 nM: IC50 [1, 6] | IC50 [2, 10]
100 to 1000 nM: IC50 [1, 9] | AC50 ([1]; RT-qPCR) | IC50 [3, 11] | GI50 [4]

Cc1cc(-c2ccc3c(=O)[nH]c(N4CCN(C)CC4)nc3c2)cc2cn(C)nc12 [Compound 2212]
1000 to 10000 nM: IC50 [1, 5] | IC50 [1, 6] | AC50 ([1]; RT-qPCR) | IC50 [2, 7] | IC50 [3, 8] | GI50 [4]

Cc1cn2cc(-c3ncc4c(=O)n([C@H]5CCNC6(CC6)C5)ccc4n3)cc(F)c2n1 [Compound 1458, 6-[(7S)-4-azaspiro[2.5]octan-7-yl]-2-(8-fluoro-2-methyl-imidazo[1,2-a]pyridin-6-yl)pyrido[4,3-d]pyrimidin-5-one]
100 to 1000 nM: IC50 [1, 6] | IC50 [3, 8] | GI50 [4]
< 100 nM: IC50 [1, 5] | AC50 ([1]; RT-qPCR) | IC50 [2, 7]

CN1CCC(Nc2ccc3ncn(-c4ccc5nn(C)cc5c4)c(=O)c3c2)CC1 [Compound 2171]
> 10000 nM: IC50 [1, 5] | IC50 [1, 6] | AC50 ([1]; RT-qPCR) | IC50 [2, 7] | IC50 [3, 8] | GI50 [4]

CCN1CC[C@@H](n2ncc3nc(-c4cc(C)c5nc(C)cn5n4)ccc3c2=O)CC12CC2 [Compound 1530]
100 to 1000 nM: GI50 [4]
< 100 nM: IC50 [1, 5] | IC50 [1, 6] | AC50 ([1]; RT-qPCR) | IC50 [2, 7] | IC50 [3, 8]

Cc1cn2cc(-c3ccc4c(=O)n(C5CCNCC5)cnc4c3F)cc(F)c2n1 [Compound 210]
1000 to 10000 nM: IC50 [1, 9] | IC50 [1, 6] | AC50 ([1]; RT-qPCR) | IC50 [3, 11]
100 to 1000 nM: IC50 [2, 10] | GI50 [4]

CN1CCC(n2cnc3cc(-c4cc(F)c5nn(C)cc5c4)ccc3c2=O)CC1 [Compound 209]
1000 to 10000 nM: IC50 [3, 11] | GI50 [4]
100 to 1000 nM: IC50 [1, 9] | IC50 [1, 6] | AC50 ([1]; RT-qPCR)
< 100 nM: IC50 [2, 10]

Cc1cn2nc(-n3cnc4ccc(N5CCN(C)CC5)cc4c3=O)cc(C)c2n1 [Compound 2202]
1000 to 10000 nM: IC50 [1, 5] | IC50 [1, 6] | AC50 ([1]; RT-qPCR) | IC50 [2, 7] | IC50 [3, 8] | GI50 [4]

CCN1CC[C@H](n2ncc3nc(-c4cc(C)c5nc(C)cn5n4)ccc3c2=O)CC12CC2 [Compound 1531]
100 to 1000 nM: IC50 [1, 5] | IC50 [1, 6] | AC50 ([1]; RT-qPCR) | IC50 [3, 8] | GI50 [4]
< 100 nM: IC50 [2, 7]

Cc1cn2cc(-n3cnc4ccc(N5CCNCC5)cc4c3=O)cc(F)c2n1 [Compound 2195]
> 10000 nM: IC50 [1, 5] | IC50 [1, 6] | AC50 ([1]; RT-qPCR) | IC50 [2, 7] | IC50 [3, 8] | GI50 [4]

Cn1cc2cc(-c3ccc4c(c3)CCN(C3CCNCC3)C4=O)cc(F)c2n1 [Compound 225]
> 10000 nM: IC50 [1, 9] | IC50 [1, 6] | AC50 ([1]; RT-qPCR) | IC50 [2, 10] | IC50 [3, 11]
1000 to 10000 nM: GI50 [4]
